In brackets after ≈: the same amount, converted by molar mass. Where a name gives a salt, the structure may show the parent alone. *1 amine or outer side, *2 acyl side, *3 side chain or, on linkers, in order; H or OH if unused. Where a SMILES comes first, the peptide text is derived from it. Bridges are numbered along the chain shown (N, C = ends). Roman numbers before positions name the chains, in order. [ ]: non-standard residue; d: D form. Actinocin(9to1) = Cc1c2oc3c(C)ccc(C(=O)[*:1])c3nc-2c(C(=O)[*:2])c(N)c1=O; NMeV = CN[C@H](C(=O)O)C(C)C; Sar = CNCC(=O)O

The test system of the first test is pyramidal cells in the hippocampus CA1 region. As to the kind of experiment: Effectiveness in gerbil model of delayed neuronal death (damage score, 4 min ischemia). The test is classed as in vivo. To be noted: 2 mg/kg, carotid arteries 5 min before ischemia; score 0-4; ischemic control 2.9 ± 0.3; mean ± standard error (Table 3-1). The protocol:
Specifically, the cervical part of a gerbil under anesthesia by halothane inhalation was incised along the median line to expose the carotid artery on both sides, which were occuluded with clips for 4 min and thereafter brought back to patency. After suturing the incised part, the anesthetization was turned off and the animal was brought back to keeping under normal condition. Three days after loading of cerebral ischemia, the gerbil was anesthetized by administering pentobarbital, fixed by transcardiac formalin perfusion and had the brain isolated. A coronary slice including the fimbria hippocampi was prepared from the isolated brain and stained with Cresyl Violet. The pyramidal cells in the hippocampus CA1 region were examined under an optical microscope and the degree of damage was rated by the following scores: 0, no damage; 1, slight damage; 2, moderate damage; 3, significant damage; 4, total damage. Each test compound was administered through the carotid arteries 5 min before ischemia.
As for `NC1CCc2c(-c3ccccc3)[nH]c3ccc(Br)c1c23` (stereo not shown) [Example 87, 5-amino-6-bromo-2-phenyl-1,3,4,5-tetrahydrobenz[cd]indole], the “Score of damage to hippocampus CA1” value was determined as 1.9 ± 0.6.

The test is the same for the next values; noted with them: 5 mg/kg, carotid arteries 5 min before ischemia; score 0-4; ischemic control 2.9 ± 0.3; mean ± standard error (Table 3-1).
Take `CNC1CCc2c(-c3ccccc3)[nH]c3cccc1c23` (stereo not shown) [Example 130, 5-(N-methylamino)-2-phenyl-1,3,4,5-tetrahydrobenz[cd]indole]: the “Score of damage to hippocampus CA1” value is 1.9 ± 0.1.

Staying with this test, now noted: 10 mg/kg, carotid arteries 5 min before ischemia; score 0-4; ischemic control 3.5 ± 0.4; mean ± standard error (Table 3-2).
Take `Cl.Cn1c(-c2ccccc2F)c2c3c(cccc31)C(N1CCOCC1)CC2` (stereo not shown) [Example 240, 2-(2-fluorophenyl)-1-methyl-5-morpholino-1,3,4,5-tetrahydrobenz[cd]indole hydrochloride]: the “Score of damage to hippocampus CA1” value was found to be 2.1 ± 0.5.

Another test has as its system neurons isolated from the cerebrum. As to the kind of experiment: Naturally occurring neuronal death suppressing action (serum-free cultivation, Crystal Violet). The test is classed as cell-based, embryonic day 16 rats. To be noted: Rattus norvegicus, Neuron, 72 h; 0.3 μg/ml; serum-free, 3 days; read-out: Suppression of Naturally Occurring Neuronal Death. How it is done: The action of compounds to suppress the naturally occurring death of neurons was evaluated in terms of their effectiveness in suppressing or inhibiting the naturally occurring death of neurons as induced by exposing cultured neurons to serum-free cultivation conditions. An experiment was run by a method adapted from the method of Shimojo et al., Neurosci. Lett., 151, 170, 1993. Specifically, neurons were isolated from the cerebrum of embryonic day 16 rats in the usual manner, suspended in a DMEM/F12 medium containing 1% fetal bovine serum, seeded onto a polylysine-coated culture plate at a density of 5×10^4 cells per square centimeter and cultivated at 37° C. in 95% air+5% CO2. After one day of culture, the medium was replaced with a serum-free medium containing a compound to be tested and the cultivation was continued for 3 more days. Subsequently, the cells were fixed with 1% glutaraldehyde and their number was determined by calorimetric quantification using Crystal Violet (Anal. Biochem., 182, 16-19, 1989). The percent suppression of neuronal death by the test compound was determined by the following formula:
(§1) 100×(ODtest-ODcontrol)/(ODnormal-ODcontrol) (%)
where ODtest is the number of cells (absorbance) in the group of addition of test compound after serum removal, ODcontrol is the number of cells (absorbance) in a control group after serum removal, and ODnormal is the number of cells (absorbance) in a control (normal) group without serum removal.
Consider `NC1CCc2c(-c3ccccc3O)[nH]c3cccc1c23` (stereo not shown) [Example 185, 5-amino-2-(2-hydroxyphenyl)-1,3,4,5-tetrahydrobenz[cd]indole], for which the inhibition at 0.3 µg/mL is 100%.
On the same count and under the same terms, the same measure for `NC1CCc2c(-c3ccccc3)[nH]c3ccc(O)c1c23` (stereo not shown) [Example 174, 5-amino-6-hydroxy-2-phenyl-1,3,4,5-tetrahydrobenz[cd]indole]: 64%; for `NC1CCc2c(-c3ccc(Cl)cc3)[nH]c3c(Cl)ccc1c23` (stereo not shown) [Example 103, 5-amino-8-chloro-2-(4-chlorophenyl)-1,3,4,5-tetrahydrobenz[cd]indole]: 56%; for `Cc1ccc(-c2[nH]c3cccc4c3c2CCC4N)cc1` (stereo not shown) [Example 99, 5-amino-2-(4-methylphenyl)-1,3,4,5-tetrahydrobenz[cd]indole]: 59%.

The test is the same for the next values; noted with them: Rattus norvegicus, Neuron, 72 h; 1.0 μg/ml; serum-free, 3 days; read-out: Suppression of Naturally Occurring Neuronal Death.
Regarding `c1ccc(CNC2CCc3c(-c4ccccc4)[nH]c4cccc2c34)cc1` (stereo not shown) [Example 153, 5-(N-benzylamino)-2-phenyl-1,3,4,5-tetrahydrobenz[cd]indole], the inhibition at 1 µg/mL is 100%.
The same measure, in the same setting: the figure for `NC1CCc2c(-c3ccc(Cl)cc3)[nH]c3cccc1c23` (stereo not shown) [Example 96, 5-amino-2-(4-chlorophenyl)-1,3,4,5-tetrahydrobenz[cd]indole] is 37%; for `CNC1CCc2c(-c3ccccc3)[nH]c3cccc1c23` (stereo not shown) [Example 130, 5-(N-methylamino)-2-phenyl-1,3,4,5-tetrahydrobenz[cd]indole] it is 76%.
Still for that read-out and setting: the same measure for `OC1CCN(C2CCc3c(-c4ccccc4)[nH]c4cccc2c34)CC1` (stereo not shown) [Example 216, 5-(4-hydroxypiperidino)-2-phenyl-1,3,4,5-tetrahydrobenz[cd]indole]: 75%; for `c1ccc(-c2[nH]c3cccc4c3c2CCC4N2CCOCC2)cc1` (stereo not shown) [Example 148, 5-morpholino-2-phenyl-1,3,4,5-tetrahydrobenz[cd]indole]: 65%.

Still in this test, the particulars now being: Rattus norvegicus, Neuron, 72 h; 3.0 μg/ml; serum-free, 3 days; read-out: Suppression of Naturally Occurring Neuronal Death.
With `c1ccc(-c2[nH]c3cccc4c3c2CCC4N2CCCCC2)cc1` (stereo not shown) [Example 151, 2-phenyl-5-piperidino-1,3,4,5-tetrahydrobenz[cd]indole], the inhibition at 3 µg/mL amounted to 98%.
Still for that read-out and setting: the figure for `Cn1c(-c2ccccc2)c2c3c(cccc31)C(NCC(=O)O)CC2` (stereo not shown) [Example 223, 5-[N-(carboxymethyl)]amino-1-methyl-2-phenyl-1,3,4,5-tetrahydrobenz[cd]indole hydrochloride] is 81%; for `CN(C)C1CCc2c(-c3ccccc3)[nH]c3cccc1c23` (stereo not shown) [Example 121, 5-(N,N-dimethylamino)2-phenyl-1,3,4,5-tetrahydrobenz[cd]indole] it is 72%; for `CC(=O)NC1CCc2c(-c3ccccc3)[nH]c3cccc1c23` (stereo not shown) [Example 124, 5-(N-acetylamino)-2-phenyl-1,3,4,5-tetrahydrobenz[cd]indole] it is 23%.
On the same count and under the same terms, the figure for `CCOC(=O)CNC1CCc2c(-c3ccccc3)n(C)c3cccc1c23` (stereo not shown) [Example 244, 5-[N-(ethoxycarbonylmethyl)]amino-1-methyl-2-phenyl-1,3,4,5-tetrahydrobenz[cd]indole hydrochloride] is 57%.
The same measure, in the same setting: the same measure for `NC1CCc2c(-c3ccccc3)[nH]c3ccc(Br)c1c23` (stereo not shown) [Example 87, 5-amino-6-bromo-2-phenyl-1,3,4,5-tetrahydrobenz[cd]indole]: 84%.

The same test, now with this note: serum-free condition.
On to `Cc1c2oc3c(C)ccc(C(=O)N[C@@H]4C(=O)N[C@H](C(C)C)C(=O)N5CCC[C@H]5C(=O)N(C)CC(=O)N(C)[C@@H](C(C)C)C(=O)O[C@@H]4C)c3nc-2c(C(=O)N[C@@H]2C(=O)N[C@H](C(C)C)C(=O)N3CCC[C@H]3C(=O)N(C)CC(=O)N(C)[C@@H](C(C)C)C(=O)O[C@@H]2C)c(N)c1=O` [actinomycin D, reference compound] (I: T[dV]P[Sar][NMeV] / II: T[dV]P[Sar][NMeV]; ester I:1-I:C, II:1-II:C; linker I:N-II:N via Actinocin(9to1)), for which the “suppression of death of neurons under the serum-free condition (in words)” value is given as “suppressed”.
Still for that read-out and setting: the entry for `O=C(O)C1=CC(=C(c2ccc(O)c(C(=O)O)c2)c2ccc(O)c(C(=O)O)c2)C=CC1=O` [aurin tricarboxylic acid, reference compound] is “suppressed”; for `C[C@@H]1C[C@@H]([C@H](O)CC2CC(=O)NC(=O)C2)C(=O)[C@@H](C)C1` [cycloheximide, reference compound] it is “suppressed”.

The next test shares this test system. The experiment in a line: Veratrine-induced neuronal death suppressing action (MTT). The test is classed as cell-based, embryonic day 16 rats. To be noted: Rattus norvegicus, Neuron; veratrine 0.35 mM; MTT after 24 h; probit method; read-out: IC50 (50% suppression of veratrine-induced neuronal death). How it is done:
The action of compounds to suppress the death of neurons induced by veratrine was evaluated in terms of their effectiveness in suppressing the neuronal death as induced by direct addition of veratrine. An experiment was run by a method adapted from the method of Powells et al., J. Pharmacol. Exp. Therapeutics, 255, 1117, 1987. Specifically, neurons were isolated from the cerebrum of embryonic day 16 rats in the usual manner, suspended in a MEM medium containing 10% fetal bovine serum, seeded onto a polylysine-coated culture plate at a density of 2.5×10^5 cells per square centimeter and cultivated at 37° C. in 95% air+5% CO2. Starting on the fifth day of cultivation, treatment was conducted with 10 μM of cytosine arabinoside for 2 days and the cultivation was continued until the 12th day, when a test was run as follows. The cells were treated with a buffer solution containing veratrine (0.35 mM) and a test compound, replaced in a serum-containing medium and cultivated for another 24 h. Subsequently, the number of viable cells was determined by calorimetric quantification using 3-(4,5-dimethylthiazol-2-yl)-2,5-diphenyltetrazolium bromide (MTT). The percent suppression of neuronal death by the test compound was determined by the following formula:
as §1
where ODtest is the number of cells (absorbance) in the group of addition of veratrine+test compound, ODcontrol is the number of cells (absorbance) in a control group of addition of veratrine, and ODnormal is the number of cells (absorbance) in a control (normal) group without addition of veratrine.
In addition, IC50 values indicating the effectiveness in achieving 50% suppression of neuronal death were calculated by the probit method on the basis of the result from more than one concentration.
What is called IC50 is the concentration that inhibits the measured activity by half. On to `NC1CCc2c(-c3ccccc3)[nH]c3ccc(O)c1c23` (stereo not shown) [Example 174, 5-amino-6-hydroxy-2-phenyl-1,3,4,5-tetrahydrobenz[cd]indole], for which the IC50 came out at 3.4 µg/mL (≈ 12.9 µM).
The same measure, in the same setting: the same measure for `NC1CCc2c(-c3ccc(F)cc3)[nH]c3cccc1c23` (stereo not shown) [Example 95, 5-amino-2-(4-fluorophenyl)-1,3,4,5-tetrahydrobenz[cd]indole]: 3.1 µg/mL (≈ 11.6 µM); for `Cc1cc2c3c(c(-c4ccccc4)[nH]c3c1)CCC2N` (stereo not shown) [Example 113, 5-amino-7-methyl-2-phenyl-1,3,4,5-tetrahydrobenz[cd]indole]: 0.7 µg/mL (≈ 2.67 µM).
The same measure, in the same setting: the same measure for `CCCN(CCC)C1CCc2c(-c3ccccc3)[nH]c3cccc1c23` (stereo not shown) [Example 150, 5-(N,N-dipropylamino)-2-phenyl-1,3,4,5-tetrahydrobenz[cd]indole]: 1.2 µg/mL (≈ 3.61 µM); for `COc1ccccc1-c1[nH]c2cccc3c2c1CCC3N` (stereo not shown) [Example 184, 5-amino-2-(2-methoxyphenyl)-1,3,4,5-tetrahydrobenz[cd]indole]: 0.8 µg/mL (≈ 2.87 µM).
Same read-out and setting: the same measure for `COC(=O)c1ccc(-c2[nH]c3c(Cl)ccc4c3c2CCC4N)cc1` (stereo not shown) [Example 171, 5-amino-8-chloro-2-(4-methoxycarbonylphenyl)-1,3,4,5-tetrahydrobenz[cd]indole]: 1.9 µg/mL (≈ 5.57 µM).
On to `COC(=O)C1CCN(C2CCc3c(-c4ccccc4)[nH]c4cccc2c34)CC1.Cl` (stereo not shown) [Example 225, 5-(4-methoxycarbonylpiperidino)-2-phenyl-1,3,4,5-tetrahydrobenz[cd]indole hydrochloride], for which the IC50 is 2.2 µg/mL.
Same read-out and setting: the same measure for `NC1CCc2c(-c3ccccc3)[nH]c3ccc([N+](=O)[O-])c1c23` (stereo not shown) [Example 90, 5-amino-6-nitro-2-phenyl-1,3,4,5-tetrahydrobenz[cd]indole]: 0.7 µg/mL (≈ 2.39 µM); for `COc1ccc2[nH]c(-c3ccccc3)c3c2c1C(N)CC3` (stereo not shown) [Example 110, 5-amino-6-methoxy-2-phenyl-1,3,4,5-tetrahydrobenz[cd]indole]: 1.8 µg/mL (≈ 6.47 µM); for `Cl.Cn1c(-c2ccccc2Cl)c2c3c(cccc31)C(N1CCOCC1)CC2` (stereo not shown) [Example 239, 2-(2-chlorophenyl)-1-methyl-5-morpholino-1,3,4,5-tetrahydrobenz[cd]indole hydrochloride]: 2.2 µg/mL.

Values taken from patent publication US6040331A, “Nerve cell protective agents” (Mochida Pharmaceutical Co., Ltd., priority 1996, dated 2000).
